Data published in patent US5624923A, “Tricyclic diazepine vasopressin antagonists and oxytocin antagonists” (priority 1995, dated 1997).

Molecular target: T1, Human V2 Vasopressin Receptor (Homo sapiens, UniProt P30518)
T1 construct: expressed in transfected cells; host or cells: mouse fibroblast cell line LV-2
Experiment: Binding to Membranes of Mouse Fibroblast Cell Line (LV-2) Transfected with the cDNA Expressing the Human V2 Vasopressin Receptor
Conditions: LV-2 cell membranes, human V2; read-out: V2 IC50 (**)

T1 sequence (P30518 whole entry): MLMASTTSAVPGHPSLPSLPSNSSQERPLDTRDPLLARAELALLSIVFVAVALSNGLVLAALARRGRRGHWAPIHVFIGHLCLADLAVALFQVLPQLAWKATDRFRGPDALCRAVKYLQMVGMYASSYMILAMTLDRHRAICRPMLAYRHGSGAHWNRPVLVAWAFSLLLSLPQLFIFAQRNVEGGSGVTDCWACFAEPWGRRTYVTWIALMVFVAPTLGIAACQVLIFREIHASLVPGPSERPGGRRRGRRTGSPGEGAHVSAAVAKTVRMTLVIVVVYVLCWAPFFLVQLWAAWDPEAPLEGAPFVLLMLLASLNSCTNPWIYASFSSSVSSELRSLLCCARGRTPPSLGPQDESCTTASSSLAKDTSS

Compound	IC50 [nM]
Cc1cccc(C(=O)Nc2ccc(C(=O)N3Cc4cccn4Cc4ccccc43)c(Cl)c2)c1C [Example 525, N-[4-(5H-pyrrolo[2,1-c][1,4]benzodiazepin-10(11H)-ylcarbonyl]-3-chlorophenyl]-2,3-dimethylbenzamide]	0.42
O=C(Nc1ccc(C(=O)N2Cc3cccn3Cc3ccccc32)c(Cl)c1)c1ccccc1C(F)(F)F [Example 528, N-[4-(5H-pyrrolo[2,1-c][1,4]benzodiazepin-10(11H)-ylcarbonyl]-3-chlorophenyl]-2-(trifluoromethyl)benzamide]	6
COc1cc(C(=O)N2Cc3cccn3Cc3ccccc32)ccc1NC(=O)c1ccccc1C [Example 477, N-[4-(5H-pyrrolo[2,1-c][1,4]benzodiazepin-10(11H)-ylcarbonyl)-2-methoxy-phenyl]-2-methylbenzamide]	3.2
O=C(Nc1ccc(C(=O)N2Cc3cccn3Cc3ccccc32)c(Cl)c1)c1ccc(F)cc1Cl [Example 527, N-[4-(5H-pyrrolo[2,1-c][1,4]benzodiazepin-10(11H)-ylcarbonyl]-3-chlorophenyl]-4-fluoro-2-chlorobenzamide]	0.67

The remaining lines, values ahead:

IC50 [nM]	Compound
10	O=C(Nc1ccc(C(=O)N2Cc3ccnn3Cc3ccccc32)cc1)c1ccc(Cl)cc1Cl [Example 217, N-[4-(4H-Pyrazolo[5,1-c][1,4]benzo-diazepin-5(10H)-ylcarbonyl)phenyl]-2,4-dichlorobenzamide]
26	O=C(Nc1ccc(C(=O)N2Cc3cccn3Cc3ccccc32)cc1)c1cc([N+](=O)[O-])ccc1Cl [Example 480, N-[4-(5H-pyrrolo[2,1-c][1,4]benzodiazepin-10(11H)-ylcarbonyl)phenyl]-2-chloro-5-nitrobenzamide]
31	O=C(Nc1ccc(C(=O)N2Cc3cccn3Cc3sccc32)cc1)c1ccc(Cl)cc1Cl [Example 274, N-(4-(5H-pyrrolo[1,2-a]thieno-[3,2-e][1,4]diazepin-4(10H)-ylcarbonyl)phenyl]-2,4-dichloro-benzamide]
1.9	COc1cc(C(=O)N2Cc3cccn3Cc3ccccc32)ccc1NC(=O)c1ccc(Cl)cc1Cl [Example 478, N-[4-(5H-pyrrolo[2,1-c][1,4]benzodiazepin-10(11H)-ylcarbonyl)-2-methoxy-phenyl]-2,4-dichlorobenzamide]
